Test results published in patent publication US7919329B2, “Method for screening for agents that affect food intake” (Oregon Health & Science University, priority 2001, dated 2011).
Like-named read-outs stand apart in the source and are kept apart here. No end group written: not given here.

Legend:
[1] = test system: POMC neurons; test: Whole cell recordings of membrane potential of EGFP-labeled POMC neurons in arcuate (ARC) slices; assay type: cell-based, mouse
[2] = test system: POMC neurons; test: Action potential frequency / firing rate of POMC neurons (whole cell and loose cell-attached); assay type: cell-based, mouse; settings: for POMC neuron firing rate (frequency of action potentials): fenfluramine 20 μM, loose-cell-attached, n=3
[3] = test system: POMC neurons; test: GABAergic IPSCs recorded in POMC neurons of ARC slices; assay type: cell-based, mouse
[4] = test system: hypothalamic explants; settings: hypothalamic explants (Batterham et al.); cited from earlier work
[5] = test system: non-POMC neurons in the arcuate nucleus; test: Membrane potential of non-fluorescent (non-POMC) neurons in the arcuate nucleus; assay type: cell-based, mouse; settings: 13 cells tested; also hyperpolarized 5 and depolarized 3
[6] = test system: POMC neurons; test: I-V relationships of drug-induced currents in POMC neurons; assay type: cell-based, mouse; settings: leptin 100 nM, slow voltage ramps

## CCNC(C)Cc1cccc(C(F)(F)F)c1 (stereo not drawn) [Fenfluramine, fenfluramine]
[1]
  resting membrane potential of POMC neurons (depolarization): depolarized POMC neurons
[2]
  POMC neuron firing rate (frequency of action potentials): two fold increase
[2]; listed as d-FEN
  POMC neuron firing rate (frequency of action potentials): doubling

## Clc1cncc(N2CCNCC2)n1 [MK 212, 6-Chloro-2-(1-piperazinyl)pyrazine]
[1]
  resting membrane potential of POMC neurons (depolarization): depolarized POMC neurons

## NC1=N[C@H](O)[C@H]2[C@H]3O[C@]4(O)O[C@@H]([C@@H](O)[C@@]2(N1)[C@@H]4O)[C@]3(O)CO [TTX, tetrodotoxin]
[3]
  large amplitude IPSCs: abolished large IPSCs

## Clc1cccc(N2CCNCC2)c1 [mCPP, 1-(3-Chlorophenyl)piperazine]
[1]
  resting membrane potential of POMC neurons (depolarization): depolarized POMC neurons

## NCCc1c[nH]c2ccc(O)cc12 [serotonin]
[1]; serotonin receptor agonists bath-applied four minutes, whole cell, n=4-8 per dose
  resting membrane potential of POMC neurons (depolarization): increased the resting membrane potential (depolarized)

## D-Trp^8-γMSH
[2]; D-Trp8-γMSH 7 nM
  frequency of action potentials: decreased the frequency of action potentials
[3]; D-Trp8-γMSH 7 nM, 3 of 4 POMC neurons
  increase of frequency of GABAergic IPSCs: 280±90%

## N-acetyl (Leu^28, Leu^31) NPY (24-36) (Ac-LRHYLNLLTRQRY; ends and bridges not checked) [Y2A]
[4]
  A-MSH release: concomitant increase in A-MSH release
  NPY release: significantly decreased NPY release
[1]; whole cell, PYY3-36 (10 nM, FIG. 6a) n=22, 19 of 22 depolarized, Y2A n=9
  depolarization of POMC neurons: 8.7±1.8 mV
[3]; PYY3-36 (50 nM, FIG. 6c) n=13, Y2A n=8
  reduction of frequency of IPSCs onto POMC neurons: 44.4±9.3%

## ghrelin: agent known to increase feeding, caloric intake, and appetite, and decrease energy expenditure (GSSFLSPEHQRVQQRKESKKPPAKLQPR; ends and bridges not checked; UniProt Q9UBU3 24-51, looked up)
[1]; ghrelin 50 nM, three minutes, whole cell
  hyperpolarization of POMC neurons, mean: 1.47±0.7 mV
[2]; ghrelin 50 nM, loose cell attached mode
  decrease of action potential firing rate of POMC neurons: 50%
[3]; ghrelin 50 nM
  frequency of IPSCs in POMC neurons: increase in the frequency of IPSCs

## leptin: adipostatic hormone
[5]
  effect on adjacent non-fluorescent ARC cells: no effect on 5 of 13 adjacent non-fluorescent cells tested
[1]; leptin 0.1-100 nM
  time to depolarization after addition: 2 to 10 min
[1]; leptin 0.1-100 nM, 72 of 77 POMC cells
  depolarization of POMC cells: 3-30 mV
[6]
  reversal of small inward current: approximately −20 mV
[3]
  inhibition of IPSCs in the presence of tetrodotoxin (TTX): still inhibited IPSCs
[3]; 100 nM, leptin in 5 out of 15 cells, NPY in all 12 POMC cells tested
  decrease of frequency of GABAergic IPSCs: 25%

## met-enkephalin (YGGFM)
[2]
  spontaneous action potential generation: prevented spontaneous action potential generation

## neuropeptide Y [NPY]
[1]; NPY, n=3, all POMC neurons tested
  hyperpolarization of POMC neurons (average): 9±6 mV
[3]
  inhibition of IPSCs in the presence of tetrodotoxin (TTX): still inhibited IPSCs
[3]; NPY 100 nM
  time to decrease of IPSC frequency: ≤ 3 min

## picrotoxin
[3]
  IPSCs: blocked all IPSCs
